In US4681970A, “Bicyclo-substituted phenylacetonitrile derivatives” (G. D. Searle & Co., priority 1986, dated 1987):
Where a name gives a salt, the structure may show the parent alone.

Legend:
[1] = tested on: spontaneously hypertensive rats (SHR); settings: clinically useful reference agents; cited from earlier work
[2] = compared with verapamil hydrochloride; cited from earlier work
[3] = tested on: spontaneously hypertensive rats (SHR); assay: Antihypertensive activity in unanesthetized spontaneously hypertensive rats (SHR); assay type: in vivo, rat; settings: for duration of antihypertensive effect: oral
Method: The test procedures employed to measure these activities are described below.
Male, unanesthetized spontaneously hypertensive rats (SHR), 11 to 16 weeks old were used in this test procedure. […]
Initial mean arterial blood pressure was measured directly via a previously implanted arterial catheter immediately before administration of the test compound. Blood pressure readings were made at hourly intervals, 24 hours per day, for 3 days following oral administration of the test compound and at 5, 10, and 15 minutes following intravenous administration. […] Statistical comparisons were made using the analysis of variance test with two sided probability calculations.

[4] = molecular target: T1, Isolated thoracic aortic rings from the male SHR (Rattus norvegicus, UniProt P22002); assay: Calcium antagonism in vascular smooth muscle (isolated thoracic aortic rings from male SHR); assay type: cell-based; settings: read-out: pA2 Ca^++ Antagonism (converted)
Method: Isolated thoracic aortic rings from the male SHR were utilized in this test procedure.
The excised aortic ring was mounted in a tissue bath containing modified Kreb's solution. After depolarization of the tissue with potassium chloride (100 mM), calcium in cumulative concentrations of 1×10^-3 M, 3.2×10^-3 M, and 1×10^-2 M was injected into the bath to produce vascular smooth muscle contraction. The developed tension (in grams) was measured and control dose-response values obtained. After one hour of incubation with a test compound at 1×10^-6 M concentration, the same doses of calcium ions were repeated. The log dose-response curves of the control and after treatment were analyzed by linear regression. The pA2 value was calculated as a measure of calcium antagonism of the test compound. See Van Rossum, J. M., Arch. Int. Pharmacodyn, 143, 299-330, 1963.
Calcium ions play an essential role in induction and maintenance of vascular smooth muscle contractility. In potassium depolarized vascular smooth muscle, calcium antagonists may block the entry of calcium ions into the cell or act by other mechanisms to inhibit the contractions induced by calcium ions. The inhibition of calcium ion--induced contraction of vascular smooth muscle is used to test compounds for vascular calcium antagonism. Cardiovascular diseases such as arrhythmias, angina-pectoris, hypertension, and peripheral vascular disease may be causally related to abnormalities in cellular handling of calcium ions.

anesthetized beagle dogs = assay: Antihypertensive effect in anesthetized beagle dogs, i.v.; assay type: in vivo, beagle dog; settings: for maximum hypotensive effect: compounds of the invention, verapamil and diltiazem compared
[5] = tested on: atrial-ventricular conduction; settings: compared with verapamil or diltiazem
[6] = molecular target: T1, Isolated thoracic aortic rings from the male SHR; settings: reference drugs, potassium depolarized vascular smooth muscle; cited from earlier work
[7] = SHR, 10 mg/kg/day for three days
[8] = conscious SHR, 50 mg/kg/day for three days
[9] = ratio of the dose required to slow or block atrial-ventricular conduction to the dose required to lower arterial pressure by 20 mmHg
[10] = ratio of the dose to decrease heart rate to the dose to lower arterial pressure

T1 sequence (P22002 whole entry): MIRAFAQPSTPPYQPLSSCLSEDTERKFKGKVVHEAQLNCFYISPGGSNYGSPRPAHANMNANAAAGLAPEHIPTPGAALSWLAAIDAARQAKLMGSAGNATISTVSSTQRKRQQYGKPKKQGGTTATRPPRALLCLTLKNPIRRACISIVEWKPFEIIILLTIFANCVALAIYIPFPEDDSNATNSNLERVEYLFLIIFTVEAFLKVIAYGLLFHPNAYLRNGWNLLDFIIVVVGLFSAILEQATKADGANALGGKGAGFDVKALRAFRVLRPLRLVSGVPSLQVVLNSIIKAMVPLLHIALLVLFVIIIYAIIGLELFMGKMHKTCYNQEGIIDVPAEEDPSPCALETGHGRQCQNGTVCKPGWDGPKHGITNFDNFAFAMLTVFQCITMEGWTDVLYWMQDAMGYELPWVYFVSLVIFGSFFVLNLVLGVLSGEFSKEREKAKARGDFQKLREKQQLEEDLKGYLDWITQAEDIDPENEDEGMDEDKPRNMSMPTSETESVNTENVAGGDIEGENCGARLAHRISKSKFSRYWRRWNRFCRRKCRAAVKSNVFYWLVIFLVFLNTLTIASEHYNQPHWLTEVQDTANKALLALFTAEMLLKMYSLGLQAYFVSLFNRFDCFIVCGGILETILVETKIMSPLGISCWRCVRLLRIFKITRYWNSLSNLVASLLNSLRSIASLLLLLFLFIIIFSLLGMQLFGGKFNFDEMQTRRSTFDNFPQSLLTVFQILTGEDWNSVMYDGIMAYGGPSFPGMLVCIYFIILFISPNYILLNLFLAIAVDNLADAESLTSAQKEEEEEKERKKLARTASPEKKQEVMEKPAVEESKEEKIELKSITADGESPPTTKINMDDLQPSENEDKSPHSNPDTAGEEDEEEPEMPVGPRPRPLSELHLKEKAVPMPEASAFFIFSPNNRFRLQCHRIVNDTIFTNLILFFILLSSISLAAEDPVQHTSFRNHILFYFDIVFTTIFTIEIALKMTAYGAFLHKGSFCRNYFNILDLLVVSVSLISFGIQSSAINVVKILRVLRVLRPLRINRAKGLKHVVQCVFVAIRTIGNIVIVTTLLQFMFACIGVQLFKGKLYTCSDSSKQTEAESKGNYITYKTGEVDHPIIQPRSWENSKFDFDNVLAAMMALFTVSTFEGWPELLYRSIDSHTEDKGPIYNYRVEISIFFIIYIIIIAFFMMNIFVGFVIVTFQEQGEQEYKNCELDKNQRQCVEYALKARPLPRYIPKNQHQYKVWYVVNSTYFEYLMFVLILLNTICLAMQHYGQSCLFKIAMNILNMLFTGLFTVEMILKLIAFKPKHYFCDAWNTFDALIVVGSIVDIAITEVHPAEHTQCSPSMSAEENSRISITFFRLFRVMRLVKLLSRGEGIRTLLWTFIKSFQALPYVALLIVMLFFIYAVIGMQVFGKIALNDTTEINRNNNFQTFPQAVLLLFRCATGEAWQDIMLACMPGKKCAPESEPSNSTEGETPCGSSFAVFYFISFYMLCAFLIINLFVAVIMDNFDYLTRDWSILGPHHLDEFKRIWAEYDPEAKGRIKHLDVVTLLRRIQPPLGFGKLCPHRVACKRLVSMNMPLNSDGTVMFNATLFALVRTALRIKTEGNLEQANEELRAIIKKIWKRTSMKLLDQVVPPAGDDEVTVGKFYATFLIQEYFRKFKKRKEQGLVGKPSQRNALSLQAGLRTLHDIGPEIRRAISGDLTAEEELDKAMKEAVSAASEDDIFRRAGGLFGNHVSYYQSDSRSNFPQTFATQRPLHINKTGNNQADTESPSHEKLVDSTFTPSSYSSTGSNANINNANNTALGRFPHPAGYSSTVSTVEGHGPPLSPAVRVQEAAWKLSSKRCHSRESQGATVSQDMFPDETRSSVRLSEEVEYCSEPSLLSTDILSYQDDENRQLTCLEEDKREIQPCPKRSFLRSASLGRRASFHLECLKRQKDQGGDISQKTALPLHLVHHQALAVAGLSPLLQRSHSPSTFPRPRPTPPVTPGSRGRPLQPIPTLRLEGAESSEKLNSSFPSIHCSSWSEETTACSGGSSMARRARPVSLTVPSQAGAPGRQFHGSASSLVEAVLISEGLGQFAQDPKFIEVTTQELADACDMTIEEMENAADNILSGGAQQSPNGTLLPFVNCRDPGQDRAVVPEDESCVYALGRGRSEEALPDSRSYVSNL
T1 sequence (P54290 25-944 partner limits assumed): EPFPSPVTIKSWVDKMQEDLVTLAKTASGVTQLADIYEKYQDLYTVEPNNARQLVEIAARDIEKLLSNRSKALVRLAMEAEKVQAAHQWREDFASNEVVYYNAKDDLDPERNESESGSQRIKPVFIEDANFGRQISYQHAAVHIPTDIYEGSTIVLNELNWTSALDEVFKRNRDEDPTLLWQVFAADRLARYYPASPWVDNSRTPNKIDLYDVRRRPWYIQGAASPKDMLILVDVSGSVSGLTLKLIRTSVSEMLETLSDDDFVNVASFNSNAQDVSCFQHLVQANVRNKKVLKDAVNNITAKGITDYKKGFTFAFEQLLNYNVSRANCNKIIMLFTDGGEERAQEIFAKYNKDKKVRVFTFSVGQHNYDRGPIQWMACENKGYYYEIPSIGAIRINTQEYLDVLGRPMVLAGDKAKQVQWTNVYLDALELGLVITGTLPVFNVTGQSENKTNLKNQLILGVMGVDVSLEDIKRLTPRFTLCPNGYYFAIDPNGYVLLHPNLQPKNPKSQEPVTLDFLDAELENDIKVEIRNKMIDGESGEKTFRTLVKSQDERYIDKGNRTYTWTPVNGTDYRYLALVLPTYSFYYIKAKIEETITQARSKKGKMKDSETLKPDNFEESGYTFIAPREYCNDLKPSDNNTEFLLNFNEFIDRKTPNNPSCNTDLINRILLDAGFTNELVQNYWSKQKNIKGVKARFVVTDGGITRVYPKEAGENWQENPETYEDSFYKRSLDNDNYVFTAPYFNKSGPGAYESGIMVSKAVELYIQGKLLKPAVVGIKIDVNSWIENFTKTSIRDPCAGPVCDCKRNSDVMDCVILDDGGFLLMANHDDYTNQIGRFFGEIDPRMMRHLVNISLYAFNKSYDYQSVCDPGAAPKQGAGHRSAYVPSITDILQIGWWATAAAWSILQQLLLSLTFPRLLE
T1 sequence (P54290 945-1091 partner limits assumed): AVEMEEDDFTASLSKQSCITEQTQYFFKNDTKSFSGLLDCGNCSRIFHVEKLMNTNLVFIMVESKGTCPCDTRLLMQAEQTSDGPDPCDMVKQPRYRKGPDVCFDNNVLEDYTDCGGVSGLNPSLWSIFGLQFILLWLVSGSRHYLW

Q: With `C[C@](N)(Cc1ccc(O)c(O)c1)C(=O)O` [Aldomet] as the molecule, how does the “active in the hypertensive rat assay” value [1] read?
A: active

Q: Which “calcium ion antagonist activity” value [2] does the source give for `CCCCCCCCCCCCC(C#N)(CCCN(C)CCc1cccc(OC)c1)c1cccc(OC)c1` (stereo not drawn) [Anipamil, 2-(3-methoxyphenyl)-2[3-[N-[2-(3-methoxyphenyl)ethyl]methylamino]propyl]tetradecanenitrile] here?
A: calcium ion antagonist activity analogous to verapamil hydrochloride

Q: Which “active in the hypertensive rat assay” value [1] does the source give for `NNc1nncc2ccccc12` [Apresoline] here?
A: active

Q: With `C[C@H](CS)C(=O)N1CCC[C@H]1C(=O)O` [Captopril] as the molecule, how does the “active in the hypertensive rat assay” value [1] read?
A: active

Q: For `Clc1cccc(Cl)c1N=C1NCCN1` [Clonidine], which “active in the hypertensive rat assay” value [1] is on record?
A: active

Q: With `COc1ccc(C(C#N)(CCCN(C)C2CCc3ccccc3C2)C(C)C)cc1OC.O=C(O)CC(O)(CC(=O)O)C(=O)O` (stereo not drawn) [Example 8, 3,4-dimethoxy-α-(1-methylethyl)-α-[3-[N-methyl-N-(1,2,3,4-tetrahydro-2-naphthalenyl)amino]propyl]phenylacetonitrile, citrate (1:1)] as the molecule, how does the “duration of antihypertensive effect” value [3, 7] read?
A: approximately 12 hours

Q: And the “duration of antihypertensive effect” value [3, 8]?
A: > 24 h

Q: What about the “SHR -mmHg intravenous (mg/kg)” value ([3]; 0.1 mg/kg) of the same molecule?
A: -30 mmHg

Q: And the Kb [4]?
A: 50.1 nM

Q: What about the “slope of the dose-blood pressure response curve” value (anesthetized beagle dogs; compared to verapamil and diltiazem) of the same molecule?
A: not as steep

Q: What about the “therapeutic ratio for atrial-ventricular block and bradycardia” value [5] of the same molecule?
A: more favorable therapeutic ratio for atrial-ventricular block and bradycardia than verapamil or diltiazem

Q: And the selectivity ratio (in vivo; [9])?
A: 4

Q: What about the selectivity ratio (in vivo; [10]) of the same molecule?
A: 3.1

Q: For `COc1ccc(C(C#N)(CCCN(C)C2CCc3cc(OC)c(OC)cc3C2)C(C)C)cc1OC.O=C(O)CC(O)(CC(=O)O)C(=O)O` (stereo not drawn) [Example 9, 3,4-dimethoxy-α-(1-methylethyl)-α-[3-[N-methyl-N-(1,2,3,4-tetrahydro-6,7-dimethoxy-2-naphthalenyl)amino]propyl]phenylacetonitrile, citrate (1:1)], which “SHR -mmHg intravenous (mg/kg)” value ([3]; 3.0 mg/kg) is on record?
A: -30 mmHg

Q: What about the Kb [4] of the same molecule?
A: 126 nM

Q: What does the source list for `COc1ccc2c(c1)CCC(N(C)CCCC(C#N)(c1ccc(OC)c(OC)c1)C(C)C)C2.O=C(O)CC(O)(CC(=O)O)C(=O)O` (stereo not drawn) [Example 10, 3,4-dimethoxy-α-(1-methylethyl)-α-[3-[N-methyl-N-(1,2,3,4-tetrahydro-6-methoxy-2-naphthalenyl)amino]propyl]phenylacetonitrile, citrate (1:1)]?
A: SHR -mmHg intravenous (mg/kg) ([3]; 3.0 mg/kg): -24 mmHg; Kb [4]: 25.1 nM

Q: With `COc1ccc(C(C#N)(CCCN(C)C2CCc3c(cccc3OC)C2)C(C)C)cc1OC.O=C(O)CC(O)(CC(=O)O)C(=O)O` (stereo not drawn) [Example 11, 3,4-dimethoxy-α-(1-methylethyl)-α-[3-[N-methyl-N-(1,2,3,4-tetrahydro-5-methoxy-2-naphthalenyl)amino]propyl]phenylacetonitrile, citrate (1:1)] as the molecule, how does the “SHR -mmHg intravenous (mg/kg)” value ([3]; 1.0 mg/kg) read?
A: -29 mmHg

Q: And the Kb [4]?
A: 50.1 nM

Q: Which “SHR -mmHg intravenous (mg/kg)” value ([3]; 1.0 mg/kg) does the source give for `COc1ccc2c(c1)CC(N(C)CCCC(C#N)(c1ccc(OC)c(OC)c1)C(C)C)CC2.O=C(O)CC(O)(CC(=O)O)C(=O)O` (stereo not drawn) [Example 12, 3,4-dimethoxy-α-(1-methylethyl)-α-[3-[N-methyl-N-(1,2,3,4-tetrahydro-7-methoxy-2-naphthalenyl)amino]propyl]phenylacetonitrile, citrate (1:1)] here?
A: -20 mmHg

Q: What about the Kb [4] of the same molecule?
A: 39.8 nM

Q: Which maximum hypotensive effect (anesthetized beagle dogs) does the source give for `COc1ccc([C@@H]2Sc3ccccc3N(CCN(C)C)C(=O)[C@@H]2OC(C)=O)cc1` [diltiazem, reference compound] here?
A: approximately the same maximum hypotensive effect

Q: What about the selectivity ratio (in vivo; [9]) of the same molecule?
A: 0.53

Q: And the selectivity ratio (in vivo; [10])?
A: 0.53

Q: What about the “active in vascular calcium antagonism test” value [6] of the same molecule?
A: active

Q: For `COC(=O)C1=C(C)NC(C)=C(C(=O)OC)C1c1ccccc1[N+](=O)[O-]` [nifedipine], which “active in vascular calcium antagonism test” value [6] is on record?
A: active

Q: Which “duration of antihypertensive effect” value [3, 7] does the source give for `COc1ccc(CCN(C)CCCC(C#N)(c2ccc(OC)c(OC)c2)C(C)C)cc1OC` (stereo not drawn) [verapamil, α[3-[[2-(3,4-dimethoxyphenyl)ethyl]methylamino]propyl]-3,4-dimethoxy-α-(1-methylethyl)hydrochloride, reference compound] here?
A: 6 h

Q: And the “duration of antihypertensive effect” value [3, 8]?
A: 14 h

Q: What about the “SHR -mmHg intravenous (mg/kg)” value ([3]; 0.3 mg/kg) of the same molecule?
A: -30 mmHg

Q: What about the maximum hypotensive effect (anesthetized beagle dogs) of the same molecule?
A: approximately the same maximum hypotensive effect
